Assay results from paper PMC12226733, “Evolution of iGluR ligand specificity, polyamine regulation, and ion selectivity inferred from a placozoan epsilon receptor” (Communications Biology, 2025).
Positions count from the first letter of the chain named. Where two headings read alike, the source gives them in different places.

How the values were obtained:
GluE1αA S642N = target: T1, GluE1αA S642N (Trichoplax adhaerens, UniProt B3SAW0, S167N); assay type: cell-based; details: for normalized conductance (G-V, Figure 5g), Avg: Na vs Na; for I-V current, Na vs Na, Avg of recordings: Figure 5b
T1 sequence (B3SAW0 1-341 S167N): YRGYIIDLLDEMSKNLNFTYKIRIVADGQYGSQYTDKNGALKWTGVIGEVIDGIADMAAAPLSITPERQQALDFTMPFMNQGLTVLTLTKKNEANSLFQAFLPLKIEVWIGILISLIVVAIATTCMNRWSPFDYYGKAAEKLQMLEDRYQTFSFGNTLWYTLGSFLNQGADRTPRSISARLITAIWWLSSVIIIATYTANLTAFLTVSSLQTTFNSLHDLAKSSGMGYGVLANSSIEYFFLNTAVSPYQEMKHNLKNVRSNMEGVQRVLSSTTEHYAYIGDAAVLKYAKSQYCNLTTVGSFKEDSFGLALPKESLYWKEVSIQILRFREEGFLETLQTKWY

GluE1αA S642Q = target: T2, GluE1αA S642Q (Trichoplax adhaerens, UniProt B3SAW0, S167Q); assay type: cell-based; details: […]; for normalized conductance (G-V, Figure 5g), Avg: Na vs Na; for I-V current, Na vs Na, Avg of recordings: Figure 5b
T2 sequence (B3SAW0 1-341 S167Q): T1 sequence (B3SAW0 1-341 S167N) with N167Q

GluE1αA S642R = assay type: cell-based, Trichoplax adhaerens; details: […]; for normalized conductance (G-V, Figure 5g), Avg: Na vs Na; for I-V current, Na vs Na, Avg of recordings: Figure 5b

SMILES: [Na+] [Na]
- pNa/pNa (GluE1αA S642N): 1.08
- normalized conductance (G-V, Figure 5g), Avg (GluE1αA S642N; Vm 0.00): 0.09
- normalized conductance (G-V, Figure 5g), Avg (GluE1αA S642N; Vm 20.00): 0.06
- normalized conductance (G-V, Figure 5g), Avg (GluE1αA S642N; Vm 40.00): 0.14
- normalized conductance (G-V, Figure 5g), Avg (GluE1αA S642N; Vm 60.00): 0.27
- normalized conductance (G-V, Figure 5g), Avg (GluE1αA S642N; Vm 80.00): 0.34
- normalized conductance (G-V, Figure 5g), Avg (GluE1αA S642N; Vm -20.00): 0.24
- normalized conductance (G-V, Figure 5g), Avg (GluE1αA S642N; Vm -40.00): 0.49
- normalized conductance (G-V, Figure 5g), Avg (GluE1αA S642N; Vm -60.00): 0.76
- normalized conductance (G-V, Figure 5g), Avg (GluE1αA S642N; Vm -80.00): 1.00
- I-V current, Na vs Na, Avg of recordings (GluE1αA S642N; Vm 0.00): -0.00109
- I-V current, Na vs Na, Avg of recordings (GluE1αA S642N; Vm 20.00): 0.0153
- I-V current, Na vs Na, Avg of recordings (GluE1αA S642N; Vm 40.00): 0.04
- I-V current, Na vs Na, Avg of recordings (GluE1αA S642N; Vm 60.00): 0.11
- I-V current, Na vs Na, Avg of recordings (GluE1αA S642N; Vm 80.00): 0.22
- I-V current, Na vs Na, Avg of recordings (GluE1αA S642N; Vm -20.00): -0.0458
- I-V current, Na vs Na, Avg of recordings (GluE1αA S642N; Vm -40.00): -0.16
- I-V current, Na vs Na, Avg of recordings (GluE1αA S642N; Vm -60.00): -0.37
- I-V current, Na vs Na, Avg of recordings (GluE1αA S642N; Vm -80.00): -0.64
- normalized conductance (G-V, Figure 5g), Avg (GluE1αA S642Q; Vm 0.00): 0.20
- normalized conductance (G-V, Figure 5g), Avg (GluE1αA S642Q; Vm 20.00): 0.25
- normalized conductance (G-V, Figure 5g), Avg (GluE1αA S642Q; Vm 40.00): 0.52
- normalized conductance (G-V, Figure 5g), Avg (GluE1αA S642Q; Vm 60.00): 0.72
- normalized conductance (G-V, Figure 5g), Avg (GluE1αA S642Q; Vm 80.00): 0.79
- normalized conductance (G-V, Figure 5g), Avg (GluE1αA S642Q; Vm -20.00): 0.51
- normalized conductance (G-V, Figure 5g), Avg (GluE1αA S642Q; Vm -40.00): 0.84
- normalized conductance (G-V, Figure 5g), Avg (GluE1αA S642Q; Vm -60.00): 0.93
- normalized conductance (G-V, Figure 5g), Avg (GluE1αA S642Q; Vm -80.00): 1.00
- I-V current, Na vs Na, Avg of recordings (GluE1αA S642Q; Vm 0.00): 0.0017
- I-V current, Na vs Na, Avg of recordings (GluE1αA S642Q; Vm 20.00): 0.0327
- I-V current, Na vs Na, Avg of recordings (GluE1αA S642Q; Vm 40.00): 0.13
- I-V current, Na vs Na, Avg of recordings (GluE1αA S642Q; Vm 60.00): 0.30
- I-V current, Na vs Na, Avg of recordings (GluE1αA S642Q; Vm 80.00): 0.51
- I-V current, Na vs Na, Avg of recordings (GluE1αA S642Q; Vm -20.00): -0.07
- I-V current, Na vs Na, Avg of recordings (GluE1αA S642Q; Vm -40.00): -0.26
- I-V current, Na vs Na, Avg of recordings (GluE1αA S642Q; Vm -60.00): -0.50
- I-V current, Na vs Na, Avg of recordings (GluE1αA S642Q; Vm -80.00): -0.73
- normalized conductance (G-V, Figure 5g), Avg (GluE1αA S642R; Vm 0.00): 0.18
- normalized conductance (G-V, Figure 5g), Avg (GluE1αA S642R; Vm 20.00): 0.18
- normalized conductance (G-V, Figure 5g), Avg (GluE1αA S642R; Vm 40.00): 0.22
- normalized conductance (G-V, Figure 5g), Avg (GluE1αA S642R; Vm 60.00): 0.29
- normalized conductance (G-V, Figure 5g), Avg (GluE1αA S642R; Vm 80.00): 0.33
- normalized conductance (G-V, Figure 5g), Avg (GluE1αA S642R; Vm -20.00): 0.24
- normalized conductance (G-V, Figure 5g), Avg (GluE1αA S642R; Vm -40.00): 0.36
- normalized conductance (G-V, Figure 5g), Avg (GluE1αA S642R; Vm -60.00): 0.62
- normalized conductance (G-V, Figure 5g), Avg (GluE1αA S642R; Vm -80.00): 1.00
- I-V current, Na vs Na, Avg of recordings (GluE1αA S642R; Vm 0.00): 0.00344
- I-V current, Na vs Na, Avg of recordings (GluE1αA S642R; Vm 20.00): 0.06
- I-V current, Na vs Na, Avg of recordings (GluE1αA S642R; Vm 40.00): 0.13
- I-V current, Na vs Na, Avg of recordings (GluE1αA S642R; Vm 60.00): 0.22
- I-V current, Na vs Na, Avg of recordings (GluE1αA S642R; Vm 80.00): 0.33
- I-V current, Na vs Na, Avg of recordings (GluE1αA S642R; Vm -20.00): -0.07
- I-V current, Na vs Na, Avg of recordings (GluE1αA S642R; Vm -40.00): -0.16
- I-V current, Na vs Na, Avg of recordings (GluE1αA S642R; Vm -60.00): -0.32
- I-V current, Na vs Na, Avg of recordings (GluE1αA S642R; Vm -80.00): -0.59
